Test results taken from ChEMBL document CHEMBL1201862, “PubChem BioAssay data set” (2004).
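Protocol summary: plate cells (96-well), add compound at 5 concentrations, incubate 48 h, interpolate endpoints linearly. GI50: concentration for 50% inhibition of growth.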 Activity calls are given as the source filed them. Cut-off read from the data, not from the text of the source: active = GI50 up to about 1.1 µM and inactive = higher.

Experiments:
Experiment in all cases: NCI-60 cell line screen, 48 h
786-0 = tested on: 786-0
SK-OV-3 = tested on: SK-OV-3
COLO 205 = tested on: COLO 205
M14 = tested on: M14
HOP-92 = tested on: HOP-92
OVCAR-5 = tested on: OVCAR-5
TK-10 = tested on: TK-10
EKVX = tested on: EKVX
SNB-19 = tested on: SNB-19
SF-539 = tested on: SF-539
SNB-75 = tested on: SNB-75
LOX IMVI = tested on: LOX IMVI
OVCAR-3 = tested on: OVCAR-3
UACC-62 = tested on: UACC-62
UACC-257 = tested on: UACC-257
HCT-116 = tested on: HCT-116
SR = tested on: SR

Measured: GI50

COc1ccc(NC(=O)/C(=C/c2ccccc2)C(C)=O)cc1
inactive: 786-0 14.8 µM | SK-OV-3 40.2 µM | COLO 205 19.1 µM | M14 12.9 µM | HOP-92 15.8 µM | OVCAR-5 19.6 µM | TK-10 20.3 µM | EKVX 22.5 µM | SNB-19 16.2 µM | SF-539 15.3 µM | SNB-75 7.11 µM | LOX IMVI 10.7 µM | OVCAR-3 16.3 µM | UACC-62 7.89 µM | UACC-257 13.3 µM

Cc1nc2ccccc2nc1CC(=O)C(=O)Nc1ccc(Cl)cc1Cl
inactive: 786-0 > 100 µM | SK-OV-3 > 100 µM | COLO 205 > 100 µM | M14 > 100 µM | HCT-116 > 100 µM | HOP-92 > 100 µM | OVCAR-5 > 100 µM | TK-10 > 100 µM | EKVX > 100 µM | SNB-19 > 100 µM | SF-539 > 100 µM | SNB-75 > 100 µM | LOX IMVI > 100 µM | OVCAR-3 > 100 µM | UACC-62 > 100 µM | UACC-257 > 100 µM

C/C=N\N1C(=O)c2ccccc2C1=O
inactive: 786-0 > 100 µM | SR > 100 µM | M14 > 100 µM | HCT-116 > 100 µM | HOP-92 > 100 µM | OVCAR-5 > 100 µM | TK-10 > 100 µM | EKVX > 100 µM | SNB-19 > 100 µM | SF-539 > 100 µM | SNB-75 > 100 µM | LOX IMVI > 100 µM | OVCAR-3 > 100 µM | UACC-62 > 100 µM | UACC-257 > 100 µM

COc1ccc([N+]2=NC(c3ccc([N+](=O)[O-])cc3)=NN(c3ccccc3)C2)cc1
inactive: 786-0 > 100 µM | SR 32.9 µM | COLO 205 68.2 µM | HCT-116 46 µM | OVCAR-5 > 100 µM | TK-10 > 100 µM | EKVX 44.4 µM | SNB-19 71.9 µM | LOX IMVI 30.1 µM | OVCAR-3 42.5 µM | UACC-257 30.1 µM

Cc1cc2nc3c(=O)[nH]c(=O)nc-3n(CC(O)C(O)C(O)CO)c2cc1N (stereo not given)
inactive: 786-0 > 100 µM | SK-OV-3 > 100 µM | COLO 205 > 100 µM | M14 > 100 µM | HCT-116 > 100 µM | HOP-92 > 100 µM | TK-10 > 100 µM | EKVX > 100 µM | SNB-19 > 100 µM | SF-539 > 100 µM | SNB-75 > 100 µM | LOX IMVI > 100 µM | OVCAR-3 > 100 µM | UACC-62 > 100 µM

C=C[Si](C)(C)COC(=O)/C(C#N)=C/C=C/c1ccccc1
inactive: 786-0 > 100 µM | SR 25.2 µM | SK-OV-3 > 100 µM | COLO 205 > 100 µM | M14 > 100 µM | HCT-116 > 100 µM | HOP-92 > 100 µM | OVCAR-5 > 100 µM | EKVX > 100 µM | SNB-19 > 100 µM | SF-539 > 100 µM | SNB-75 34.6 µM | OVCAR-3 34.8 µM | UACC-62 88.7 µM | UACC-257 > 100 µM

O=[N+]([O-])c1ccc(C2=Nn3c(nnc3-c3ccccc3)SC2)o1
inactive: 786-0 20.8 µM | SK-OV-3 > 100 µM | COLO 205 21.4 µM | M14 17.6 µM | HCT-116 17.6 µM | HOP-92 13.2 µM | OVCAR-5 29.6 µM | TK-10 19.6 µM | EKVX 46.8 µM | SNB-19 85.5 µM | SF-539 18.8 µM | SNB-75 20.4 µM | OVCAR-3 17.3 µM | UACC-62 19.5 µM | UACC-257 20 µM

COC(=O)C(=NNc1ccccc1[N+](=O)[O-])C(=O)OC
inactive: 786-0 > 100 µM | SR > 100 µM | SK-OV-3 > 100 µM | COLO 205 > 100 µM | HCT-116 > 100 µM | HOP-92 24.1 µM | OVCAR-5 > 100 µM | TK-10 > 100 µM | EKVX > 100 µM | SNB-19 > 100 µM | SF-539 > 100 µM | LOX IMVI > 100 µM | UACC-257 > 100 µM

CC1OC(OC2C(CO)OC(O[C@H]3CC[C@@]4(C)C(=CC[C@H]5[C@@H]6C[C@@H]7O[C@]8(CC[C@@H](C)CN8)[C@@H](C)[C@@H]7[C@@]6(C)CC[C@@H]54)C3)C(O)C2O)C(O)C(O)C1O (stereo not given in full)
inactive: 786-0 > 100 µM | SK-OV-3 > 100 µM | COLO 205 > 100 µM | M14 > 100 µM | HCT-116 > 100 µM | HOP-92 31.7 µM | OVCAR-5 > 100 µM | TK-10 > 100 µM | EKVX 76 µM | SNB-19 > 100 µM | SF-539 > 100 µM | SNB-75 42.1 µM | LOX IMVI > 100 µM | OVCAR-3 > 100 µM | UACC-62 > 100 µM | UACC-257 > 100 µM

CCc1ccccc1NC(=O)c1cccc([N+](=O)[O-])c1O
inactive: 786-0 71.6 µM | SK-OV-3 25 µM | COLO 205 17.2 µM | M14 47.5 µM | HCT-116 24.2 µM | HOP-92 14.4 µM | OVCAR-5 17.9 µM | EKVX 30.8 µM | SNB-19 41.7 µM | SF-539 > 100 µM | SNB-75 20.9 µM | LOX IMVI 16.3 µM | OVCAR-3 26.7 µM | UACC-62 9.93 µM | UACC-257 19.9 µM
